{"source": "patent EP1273297A1", "about": "“Vitamin E for the treatment of diseases in which the binding of the transcription factor NF-KB and/or AP-1 to promoter target sites has a beneficial effect (eg AIDS, cardiac infarction)” (Deutsches Krebsforschungszentrum Stiftung des öffentlichen …, priority 2001, dated 2003)", "key": {"[1]": {"tested_on": "human peripheral blood T cells", "assay": "AICD of day 6 prestimulated peripheral blood T cells restimulated with plate-bound α-CD3, cell death by propidium iodide uptake", "assay_type": "cell-based", "settings": "depending on the blood donors; vitamin E at physiological concentrations", "protocol": "Freshly isolated blood T cells were stimulated by PHA and cultured in the presence of IL-2 for 6 days as described in Klas et al., Int. Immunol. 5 (1993), 625. The day 6 prestimulated T cells were then treated without or with 25 µM vitamin E (VE) Sigma (St. Louis, MO, USA) for 1 h and subsequently cultured in 96-well-flat-bottomed plates coated with α-CD3 (OKT3, 50 µg/ml; (DKFZ, Prof. Krammer) in the absence or presence of CD95-Fc (50 µg/ml; (DKFZ, Prof. Krammer, Dhein et al., Nature 373 (1995), 438) or control human (50 µg/ml) IgG-1. Cell death was assessed after a further 48 h by propidium iodide (PI) uptake (Klas et al., Int. Immunol. 5 (1993), 625.\nSince activation-induced-cell-death (AICD) is a major cause of T cell depletion in AIDS and since supplementation of vitamin E is shown to increase T cell numbers, it was investigated whether vitamin E could protect from T cell depletion by AICD. To analyze the effect of vitamin E on T cell death, freshly isolated peripheral blood T cells were prestimulated for 6 days (referred to as day 6 cells) and subsequently restimulated via the TCR by plate-bound α-CD3 antibodies. […] CD95 (APO-1/Fas) and its ligand (CD95L) are known to play a major role in AICD of T cells. […] The concentration of vitamin E in plasma from healthy individuals normally ranges from 12-35 µM. Thus, vitamin E at physiological concentrations may attenuate AICD. […]"}, "[2]": {"tested_on": "CD95L mRNA", "assay": "CD95L mRNA levels by RT-PCR in day 6 T cells stimulated with plate bound α-CD3", "assay_type": "cell-based, human", "settings": "25 µM vitamin E 1 h, then α-CD3 12 h (Fig. 1B)", "protocol": "(§1) The day 6 T cells were cultured in the absence or presence of 25 µM vitamin E for 1 h and then stimulated for 12 h with plate bound α-CD3. The mRNA was analyzed by RT-PCR using primers specific for CD95L (Eichhorst et al., Mol. Cell. Biol. 20 (2000), 7826) . For controls, primers for IFNγ and β-actin were used. The primers had the following sequences: • CD95L: sense-5'-[…]-3' antisense-5'[…]-3' • IFN-γ: sense-5'[…]-3' antisense-5'[…]-3' • human β-actin: sense-5'[…]-3' antisense-5'[…]-3'\n(§2) Since activation-induced-cell-death (AICD) is a major cause of T cell depletion in AIDS and since supplementation of vitamin E is shown to increase T cell numbers, it was investigated whether vitamin E could protect from T cell depletion by AICD. To analyze the effect of vitamin E on T cell death, freshly isolated peripheral blood T cells were prestimulated for 6 days (referred to as day 6 cells) and subsequently restimulated via the TCR by plate-bound α-CD3 antibodies. […] CD95 (APO-1/Fas) and its ligand (CD95L) are known to play a major role in AICD of T cells. […] The concentration of vitamin E in plasma from healthy individuals normally ranges from 12-35 µM. Thus, vitamin E at physiological concentrations may attenuate AICD. Indeed, depending on the blood donors, vitamin E reduced AICD by 20-50%. […]"}, "[3]": {"tested_on": "IFNγ mRNA", "assay": "IFNγ mRNA levels by RT-PCR (control) in day 6 T cells stimulated with plate bound α-CD3", "assay_type": "cell-based, human", "settings": "25 µM vitamin E 1 h, then α-CD3 12 h (Fig. 1B)", "protocol": "as §1, §2"}, "[4]": {"tested_on": "Jurkat J-27 T cells", "assay": "AICD of Jurkat J-27 T cells, apoptotic nuclei by DNA fragmentation", "assay_type": "cell-based", "settings": "J-27 cells", "protocol": "J-27 T cells were induced either with PMA (10 ng/ml) Sigma (St. Louis, MO, USA) and ionomycin (0.5 µM), Calbiochem (Bad Soden/Ts, Germany) or with plate bound α-CD3 (OKT3, 50 µg/ml) for 24 h in the presence of vitamin E or equal amount of the vitamin E solvent ethanol. Apoptotic nuclei were measured by determination of DNA fragmentation (Dhein et al., Nature 373 (1995), 438).\nJ-27 cells were stimulated in the absence or presence of CD95-Fc (50 µg/ml) or NOKI (50 µg/ml). BD-Pharmingen (Heidelberg, Germany), for 24 h.\n(§3) To further investigate the molecular mechanism by which vitamin E attenuates AICD, several Jurkat T cell sub-clones susceptible to T-cell-receptor (TCR)-mediated-activation-induced apoptosis were selected. Data from one of the representative clones, clone 27 (J-27) is presented here. Activation of T cells through the T cell receptor can be mimicked by stimulation with the phorbol ester (PMA) and calcium ionophores (ionomycin). […] Therefore, it is unlikely that vitamin E directly interferes with signals downstream of the CD95 receptor. […] Thus, vitamin E may reduce CD95L expression at the transcriptional level and, therefore, attenuate AICD in J-27 cells. Experimental details are given in the legend to Figure 2."}, "[5]": {"tested_on": "J-27 cells", "assay": "α-APO-1 induced CD95-triggered apoptosis in J-27 cells", "assay_type": "cell-based", "settings": "50 µM vitamin E 1 h, then α-APO-1 10 ng/ml with 10 ng/ml protein A (Fig. 2D)", "protocol": "J-27 cells were cultured in the absence or presence of 50 µM vitamin E for 1 h and than, treated with α-APO-1 (10 ng/ml) antibody, DKFZ, Prof. Krammer, Trauth et al., Science 245 (1989), 301 in the presence of 10 ng/ml protein A for the indicated times.\nas §3"}, "[6]": {"tested_on": "CD95L mRNA", "assay": "CD95L mRNA expression by RT-PCR in J-27 T cells stimulated by PMA and ionomycin", "assay_type": "cell-based", "settings": "J-27 cells", "protocol": "(§4) J-27 T cells were cultured in the absence or presence of 50 µM vitamin E for 1 h and then stimulated by PMA (10 ng/ml) and ionomycin (0.5 µM) for the indicated times. CD95L mRNA expression was analyzed by RT-PCR. Primers for IFNγ and β-actin were used as controls.\nas §3"}, "[7]": {"tested_on": "IFNγ mRNA", "assay": "IFNγ mRNA by RT-PCR (control) in J-27 T cells stimulated by PMA and ionomycin", "assay_type": "cell-based", "settings": "J-27 cells, 50 µM vitamin E, PMA/ionomycin (Fig. 2E)", "protocol": "as §4, §3"}}, "data": [{"smiles": "Cc1c(C)c2c(c(C)c1O)CC[C@@](C)(CCC[C@H](C)CCC[C@H](C)CCCC(C)C)O2", "note": "[vitamin E, α-tocopherol]", "values": [{"measurement": "reduced AICD", "setting": "[1]", "result": "20-50%"}, {"measurement": "increase of CD95L mRNA expression upon restimulation", "setting": "[2]", "result": "blocked"}, {"measurement": "levels of IFNγ mRNA", "setting": "[3]", "result": "did not significantly influence"}, {"measurement": "PMA/ionomycin-induced cell death", "setting": "[4]; PMA 10 ng/ml and ionomycin 0.5 µM, 24 h (Fig. 2A, B)", "result": "significantly reduced"}, {"measurement": "α-CD3-induced cell death", "setting": "[4]; plate bound α-CD3 (OKT3, 50 µg/ml) 24 h (Fig. 2A, B)", "result": "significantly reduced"}, {"measurement": "α-APO-1 induced CD95-triggered apoptosis", "setting": "[5]", "result": "did not prevent"}, {"measurement": "CD95L mRNA expression", "setting": "[6]; 50 µM vitamin E 1 h, then PMA/ionomycin (Fig. 2E)", "result": "substantially reduced"}, {"measurement": "reduction of CD95L mRNA expression", "setting": "[6]; 50 µM vitamin E, 3 h post stimulation (Fig. 2E)", "result": "readily seen"}, {"measurement": "CD95L mRNA expression", "setting": "[6]; 50 µM vitamin E, 6 h post stimulation (Fig. 2E)", "result": "nearly completely blocked"}, {"measurement": "levels of IFNγ mRNA", "setting": "[7]", "result": "not significantly changed"}]}]}
